According to paper PMC10818515, “Improvement of the Thermal Stability and Aqueous Solubility of Three Matrine Salts Assembled by the Similar Structure Salt Formers” (Pharmaceuticals, 2024):
≈ marks a conversion by molar mass, not a printed value. Like-named read-outs stand apart in the source and are kept apart here.

Experiment: Equilibrium solubility by the shake flask method
Assay type: physicochemical
Conditions: 37 °C; for solubility thermodynamic at 72 h: thermodynamic from solid, read-out: Equilibrium solubility, Concentration; for solubility thermodynamic at 72 h / Equilibrium solubility, Concentration: n = 3
Protocol: Aqueous solubility is one of the key factors affecting the bioavailability of drugs. […] Generally, the charged part has high aqueous solubility. […] The concentration of the samples was analyzed through high-performance liquid chromatography. The mobile phase consisted of methanol, acetonitrile, and phosphate buffer (15:15:70).

| SMILES | solubility thermodynamic at 72 h (aqueous buffer, pH = 4.5 acetic acid buffer) [mg/mL] | solubility thermodynamic at 72 h (aqueous buffer, pH = 6.8 phosphate buffer) [mg/mL] | solubility thermodynamic at 72 h (simulated gastric fluid, pH = 1.2 hydrochloric acid solution) [mg/mL] | solubility thermodynamic at 72 h (H2O (purified water)) [mg/mL] | Equilibrium solubility, Concentration (H2O (purified water)) [mg/mL] | Solubility relative to that of MAT (acetate buffer (pH 4.5)) [times] | Solubility relative to that of MAT (hydrochloric acid solution (pH 1.2)) [times] | Equilibrium solubility, Concentration (pH = 1.2 hydrochloric acid solution) [mg/mL] | Equilibrium solubility, Concentration (pH = 4.5 acetic acid buffer) [mg/mL] | Equilibrium solubility, Concentration (pH = 6.8 phosphate buffer) [mg/mL] | Solubility relative to that of MAT (phosphate buffer (pH 6.8)) [times] | Solubility relative to that of MAT (pure water) [times] |
| --- | --- | --- | --- | --- | --- | --- | --- | --- | --- | --- | --- | --- |
| O=C1CCC[C@@H]2[C@H]3CCCN4CCC[C@@H](CN12)[C@@H]34 [MAT, Matrine] | 91.8 ± 2.31 (≈ 370 mM) | 64.9 ± 1.13 (≈ 261 mM) | 90.9 ± 1.01 (≈ 366 mM) | 65.36 ± 0.53 (≈ 263 mM) |  |  |  |  |  |  |  |  |
| O=C(O)c1c(O)cccc1O.O=C1CCCC2C3CCCN4CCCC(CN12)C34 (stereo not drawn) [MAT-26DHB, MAT-2,6-dihydroxybenzoic acid] |  |  |  |  | 7.42 ± 0.45 | 0.09 | 0.14 | 13.08 ± 1.52 | 8.23 ± 0.10 | 5.71 ± 0.75 | 0.09 | 0.11 |
